# From patent US9211310B2, “Use of a Chinese medicine composition in preparing medicaments for treating secondary prevention of myocardial infarction” (TASLY PHARMACEUTICAL GROUP CO., LTD, priority 2010, dated 2015)
# Tested on: patients after acute myocardial infarction
# Assay: Life quality, Seattle Angina Questionnaire (SAQ), same clinical trial
# Format: in vivo, human
# Settings: FAS
# Description: 3508 patients who were in accordance with the diagnostic standards of AMI for 28 days to 2 years and differentiated as Qi deficiency and blood stagnation syndrome by TCM were studied. 0.5 g Chinese medicine composition prepared by the method of EXAMPLE 1 (Coded as QSYQ) was administrated half an hour after meal, 3 times per day.
# There were 19 questions in the Seattle angina questionnaire (SAQ), including 5 parts: physical limitation (PL), anginal stability (AS), anginal frequency (AF), treatment satisfaction (TS) and disease perception (DP). After being given necessary explanation by doctors, the questions were answered independently by patients.
# They included the overall survival time, angina pectoris score, TCM symptom score and life quality score, where angina pectoris score, TCM symptom score and life quality score were evaluated at randomization, in 1st, 3rd, 6th, 9th, 12th month after treatment and 18th month after follow-up.
# All evaluation results of SAQ were described during the period of observation, and Wilcoxon rank sum test was used for inter-group comparison.
# The evaluation results in the SAQ were depicted in different observations, and inter-group comparison was tested by Wilcoxon Rank-sum test.
smiles,measurement,setting,value
"CC(=O)Oc1ccccc1C(=O)O [Control group, aspirine]","SAQ 6th question, Mostly satisfied: % of patients",3 months after treatment,(51.83%)
same,"SAQ 6th question, Mostly satisfied: number of patients",3 months after treatment,904
same,"SAQ 6th question, Partly satisfied: % of patients",3 months after treatment,(25.69%)
same,"SAQ 6th question, Partly satisfied: number of patients",3 months after treatment,448
same,"SAQ 7th question, Dissatisfied: % of patients",3 months after treatment,(0.11%)
same,"SAQ 7th question, Dissatisfied: number of patients",3 months after treatment,2
same,"SAQ 7th question, Highly satisfied: % of patients",3 months after treatment,(22.68%)
same,"SAQ 7th question, Highly satisfied: number of patients",3 months after treatment,395
same,"SAQ 7th question, Mostly dissatisfied: % of patients",3 months after treatment,(1.95%)
same,"SAQ 7th question, Mostly dissatisfied: number of patients",3 months after treatment,34
same,"SAQ 7th question, Mostly satisfied: % of patients",3 months after treatment,(54.08%)
same,"SAQ 7th question, Mostly satisfied: number of patients",3 months after treatment,942
same,"SAQ 7th question, Partly satisfied: % of patients",3 months after treatment,(21.18%)
same,"SAQ 7th question, Partly satisfied: number of patients",3 months after treatment,369
same,"SAQ Question 1-1 Mildly limited, number of patients",3 months after treatment,26
same,"SAQ Question 1-1 Mildly limited, percent of patients",3 months after treatment,(1.49%)
same,"SAQ Question 1-1 Moderately limited, number of patients",3 months after treatment,7
same,"SAQ Question 1-1 Moderately limited, percent of patients",3 months after treatment,(0.40%)
same,"SAQ Question 1-1 Not limited, number of patients",3 months after treatment,1634
same,"SAQ Question 1-1 Not limited, percent of patients",3 months after treatment,(93.69%)
same,"SAQ Question 1-1 Other reasons, number of patients",3 months after treatment,4
same,"SAQ Question 1-1 Other reasons, percent of patients",3 months after treatment,(0.23%)
same,"SAQ Question 1-1 Severely limited, number of patients",3 months after treatment,1
same,"SAQ Question 1-1 Severely limited, percent of patients",3 months after treatment,(0.06%)
same,"SAQ Question 1-1 Slightly limited, number of patients",3 months after treatment,72
same,"SAQ Question 1-1 Slightly limited, percent of patients",3 months after treatment,(4.13%)
same,"SAQ Question 1-2 Mildly limited, number of patients",3 months after treatment,23
same,"SAQ Question 1-2 Mildly limited, percent of patients",3 months after treatment,(1.32%)
same,"SAQ Question 1-2 Moderately limited, number of patients",3 months after treatment,10
same,"SAQ Question 1-2 Moderately limited, percent of patients",3 months after treatment,(0.57%)
same,"SAQ Question 1-2 Not limited, number of patients",3 months after treatment,1603
same,"SAQ Question 1-2 Not limited, percent of patients",3 months after treatment,(91.92%)
same,"SAQ Question 1-2 Other reasons, number of patients",3 months after treatment,7
same,"SAQ Question 1-2 Other reasons, percent of patients",3 months after treatment,(0.40%)
same,"SAQ Question 1-2 Severely limited, number of patients",3 months after treatment,0
same,"SAQ Question 1-2 Severely limited, percent of patients",3 months after treatment,(0.00%)
same,"SAQ Question 1-2 Slightly limited, number of patients",3 months after treatment,101
same,"SAQ Question 1-2 Slightly limited, percent of patients",3 months after treatment,(5.79%)
same,"SAQ Question 1-6: Mildly limited, patients (%)",3 months after treatment,(18.23%)
same,"SAQ Question 1-6: Moderately limited, patients (%)",3 months after treatment,(13.05%)
same,"SAQ Question 1-6: Not limited, patients (%)",3 months after treatment,(31.45%)
same,"SAQ Question 1-6: Other reasons, patients (%)",3 months after treatment,(0.92%)
same,"SAQ Question 1-6: Severely limited, patients (%)",3 months after treatment,(4.14%)
same,"SAQ Question 1-6: Slightly limited, patients (%)",3 months after treatment,(32.20%)
same,"SAQ Question 1-7: Mildly limited, patients (%)",3 months after treatment,(23.77%)
same,"SAQ Question 1-7: Moserately limited, patients (%)",3 months after treatment,(15.07%)
same,"SAQ Question 1-7: Not limited, patients (%)",3 months after treatment,(13.91%)
same,"SAQ Question 1-7: Other reasons, patients (%)",3 months after treatment,(3.01%)
same,"SAQ Question 1-7: Severely limited, patients (%)",3 months after treatment,(15.88%)
same,"SAQ Question 1-7: Slightly limited, patients (%)",3 months after treatment,(28.35%)
same,"SAQ Question 1-8: Mildly limited, patients (%)",3 months after treatment,(25.55%)
same,"SAQ Question 1-8: Moderately limited, patients (%)",3 months after treatment,(17.89%)
same,"SAQ Question 1-8: Not limited, patients (%)",3 months after treatment,(10.69%)
same,"SAQ Question 1-8: Other reasons, patients (%)",3 months after treatment,(3.02%)
same,"SAQ Question 1-8: Severely limieted, patients (%)",3 months after treatment,(21.02%)
same,"SAQ Question 1-8: Slightly limited, patients (%)",3 months after treatment,(21.84%)
same,"8th question: Dissatisfied, patients (%)",6 months after treatment,(0.17%)
same,"8th question: Highly satisfied, patients (%)",6 months after treatment,(20.30%)
same,"8th question: Mostly satisfied, patients (%)",6 months after treatment,(56.59%)
same,"8th question: Partly satisfied, patients (%)",6 months after treatment,(20.70%)
same,"9th question: Few, patients (%)",6 months after treatment,(34.75%)
same,"9th question: Mild, patients (%)",6 months after treatment,(34.63%)
same,"9th question: Severe, patients (%)",6 months after treatment,(0.86%)
same,"9th question: Uneffective, patients (%)",6 months after treatment,(18.12%)
same,"10th question: Dissatisfied, patients (%)",6 months after treatment,(20.87%)
same,"10th question: Highly satisfied, patients (%)",6 months after treatment,(4.64%)
same,"10th question: Mostly dissatisfied, patients (%)",6 months after treatment,(21.56%)
same,"10th question: Mostly satisfied, patients (%)",6 months after treatment,(26.61%)
same,"10th question: Partly satisfied, patients (%)",6 months after treatment,(26.32%)
same,"11th question: Continuously worried, patients (%)",6 months after treatment,(4.42%)
same,"11th question: No worried, patients (%)",6 months after treatment,(4.93%)
same,"11th question: Occasionally worried, patients (%)",6 months after treatment,(41.69%)
same,"11th question: Often worried, patients (%)",6 months after treatment,(14.85%)
same,"11th question: Seldom worried, patients (%)",6 months after treatment,(34.12%)
same,"SAQ 4th question, 1-2 times per week: % of patients",6 months after treatment,(17.55%)
same,"SAQ 4th question, 1-2 times per week: number of patients",6 months after treatment,306
same,"SAQ 4th question, 1-3 times per day: % of patients",6 months after treatment,(4.70%)
